Results from US6358885B1, “Substituted phenylheterocyclic herbicides” (Mississippi State University, priority 1992, dated 2002).

What was measured:
Test in all cases: Test F preemergence/postemergence greenhouse plant response rating 0 to 100
ryegrass = assay type: in vivo, Lolium multiflorum; details: POSTEMERGENCE, 0 to 100 scale
Text: (§1) Compounds evaluated in this test were formulated in a non-phytoxic solvent and applied to the soil surface before plant seedlings emerged (preemergence application) and to plants that were in the one-to-four leaf stage (postemergence application). A sandy loam soil was used for the preemergence test while a mixture of sandy loam soil and greenhouse potting mix in a 60:40 ratio was used for the postemergence test. Test compounds were applied within approximately one day after planting seeds for the preemergence test. Plantings of these crops and weed species were adjusted to produce plants of appropriate size for the postemergence test. All plant species were grown using normal greenhouse practices. Crop and weed species include winter barley (Hordeum vulgare cv. ‘Igri’), blackgrass (Alopecurus myosuroides), chickweed (Stellaria media), downy brome (Bromus tectorum), field violet (Viola arvensis), galium (Galium aparine), green foxtail (Setaria viridis), kochia (Kochia scoparia), lambsquarters (Chenopodium album), speedwell (Veronica persica), rape (Brassica napus), ryegrass (Lolium multiflorum), sugar beet (Beta vulgaris cv. ‘USl’), sunflower (Helianthus annuus cv. ‘Russian Giant’), spring wheat (Triticum aestivum cv. ‘ERA’), winter wheat (Triticum aestivum cv. ‘Talent’), wild buckwheat (Polygonum convolvulus), wild mustard (Sinapis arvensis), wild oat (Avena fatua), and wild radish (Raphanus raphanistrum). Blackgrass, galium and wild oat were treated at two growth stages. […] Treated plants and untreated controls were maintained in a greenhouse for approximately 21 to 28 days, after which all treated plants were compared to untreated controls and visually evaluated. […] A dash response (-) means no test result.

winter wheat = assay type: in vivo, Triticum aestivum cv. ‘Talent’; details: POSTEMERGENCE, 0 to 100 scale
Text: as §1

wild oat = assay type: in vivo, Avena fatua; details: POSTEMERGENCE, 0 to 100 scale; for Wild oat (1) plant response rating: stage (1) two to three leaves; for Wild oat (2) plant response rating: stage (2) approximately four leaves or initial tillering
Text: as §1

wild mustard = assay type: in vivo, Sinapis arvensis; details: POSTEMERGENCE, 0 to 100 scale
Text: as §1

wild buckwheat = assay type: in vivo, Polygonum convolvulus; details: POSTEMERGENCE, 0 to 100 scale
Text: as §1

kochia = assay type: in vivo, Kochia scoparia; details: POSTEMERGENCE, 0 to 100 scale
Text: as §1

downy brome = assay type: in vivo, Bromus tectorum; details: POSTEMERGENCE, 0 to 100 scale
Text: as §1

green foxtail = assay type: in vivo, Setaria viridis; details: POSTEMERGENCE, 0 to 100 scale
Text: as §1

sunflower = assay type: in vivo, Helianthus annuus cv. ‘Russian Giant’; details: POSTEMERGENCE, 0 to 100 scale
Text: as §1

field violet = assay type: in vivo, Viola arvensis; details: POSTEMERGENCE, 0 to 100 scale
Text: as §1

sugar beet = assay type: in vivo, Beta vulgaris cv. ‘USl’; details: POSTEMERGENCE, 0 to 100 scale
Text: as §1

rape = assay type: in vivo, Brassica napus; details: POSTEMERGENCE, 0 to 100 scale
Text: as §1

galium = assay type: in vivo, Galium aparine; details: POSTEMERGENCE, 0 to 100 scale; for Galium (1) plant response rating: stage (1) two to three leaves; for Galium (2) plant response rating: stage (2) approximately four leaves or initial tillering
Text: as §1

chickweed = assay type: in vivo, Stellaria media; details: POSTEMERGENCE, 0 to 100 scale
Text: as §1

Fc1cc(Cl)c(OCCCl)cc1-c1nn2c(c1Cl)CCCC2 [Compound 49]
Ryegrass plant response rating (ryegrass; Rate 2 g/ha): 0 | Ryegrass plant response rating (ryegrass; Rate 4 g/ha): 0 | Ryegrass plant response rating (ryegrass; Rate 8 g/ha): 0 | Ryegrass plant response rating (ryegrass; Rate 16 g/ha): 0 | Ryegrass plant response rating (ryegrass; Rate 32 g/ha): 20 | Wheat (Winter) plant response rating (winter wheat; Rate 2 g/ha): 0 | Wheat (Winter) plant response rating (winter wheat; Rate 4 g/ha): 10 | Wheat (Winter) plant response rating (winter wheat; Rate 8 g/ha): 10 | Wheat (Winter) plant response rating (winter wheat; Rate 16 g/ha): 10 | Wheat (Winter) plant response rating (winter wheat; Rate 32 g/ha): 20 | Wild oat (1) plant response rating (wild oat; Rate 2 g/ha): 0 | Wild oat (2) plant response rating (wild oat; Rate 2 g/ha): 0 | Wild oat (1) plant response rating (wild oat; Rate 4 g/ha): 10 | Wild oat (2) plant response rating (wild oat; Rate 4 g/ha): 0 | Wild oat (1) plant response rating (wild oat; Rate 8 g/ha): 20 | Wild oat (2) plant response rating (wild oat; Rate 8 g/ha): 0 | Wild oat (1) plant response rating (wild oat; Rate 16 g/ha): 20 | Wild oat (2) plant response rating (wild oat; Rate 16 g/ha): 0 | Wild oat (1) plant response rating (wild oat; Rate 32 g/ha): 30 | Wild oat (2) plant response rating (wild oat; Rate 32 g/ha): 20 | Wild mustard plant response rating (wild mustard; Rate 2 g/ha): 90 | Wild mustard plant response rating (wild mustard; Rate 4 g/ha): 100 | Wild mustard plant response rating (wild mustard; Rate 8 g/ha): 100 | Wild mustard plant response rating (wild mustard; Rate 32 g/ha): 100 | Wild buckwheat plant response rating (wild buckwheat; Rate 2 g/ha): 100 | Wild buckwheat plant response rating (wild buckwheat; Rate 4 g/ha): 100 | Wild buckwheat plant response rating (wild buckwheat; Rate 8 g/ha): 100 | Wild buckwheat plant response rating (wild buckwheat; Rate 16 g/ha): 100 | Wild buckwheat plant response rating (wild buckwheat; Rate 32 g/ha): 100 | Kochia plant response rating (kochia; Rate 2 g/ha): 20 | Kochia plant response rating (kochia; Rate 4 g/ha): 60 | Kochia plant response rating (kochia; Rate 8 g/ha): 80 | Kochia plant response rating (kochia; Rate 16 g/ha): 100 | Kochia plant response rating (kochia; Rate 32 g/ha): 100 | Downy brome plant response rating (downy brome; Rate 2 g/ha): 0 | Downy brome plant response rating (downy brome; Rate 4 g/ha): 0 | Downy brome plant response rating (downy brome; Rate 8 g/ha): 0 | Downy brome plant response rating (downy brome; Rate 16 g/ha): 10 | Downy brome plant response rating (downy brome; Rate 32 g/ha): 10 | Green foxtail plant response rating (green foxtail; Rate 2 g/ha): 0 | Green foxtail plant response rating (green foxtail; Rate 4 g/ha): 0 | Green foxtail plant response rating (green foxtail; Rate 8 g/ha): 20 | Green foxtail plant response rating (green foxtail; Rate 16 g/ha): 50 | Green foxtail plant response rating (green foxtail; Rate 32 g/ha): 60 | Sunflower plant response rating (sunflower; Rate 2 g/ha): 0 | Sunflower plant response rating (sunflower; Rate 4 g/ha): 0 | Sunflower plant response rating (sunflower; Rate 8 g/ha): 0 | Sunflower plant response rating (sunflower; Rate 16 g/ha): 0 | Sunflower plant response rating (sunflower; Rate 32 g/ha): 0 | Field violet plant response rating (field violet; Rate 8 g/ha): 60 | Field violet plant response rating (field violet; Rate 16 g/ha): 60 | Field violet plant response rating (field violet; Rate 32 g/ha): 100 | Sugar beet plant response rating (sugar beet; Rate 2 g/ha): 70 | Sugar beet plant response rating (sugar beet; Rate 4 g/ha): 100 | Sugar beet plant response rating (sugar beet; Rate 8 g/ha): 100 | Sugar beet plant response rating (sugar beet; Rate 32 g/ha): 100 | Rape plant response rating (rape; Rate 2 g/ha): 0 | Rape plant response rating (rape; Rate 4 g/ha): 0 | Rape plant response rating (rape; Rate 8 g/ha): 0 | Rape plant response rating (rape; Rate 16 g/ha): 0 | Rape plant response rating (rape; Rate 32 g/ha): 20 | Galium (1) plant response rating (galium; Rate 2 g/ha): 0 | Galium (2) plant response rating (galium; Rate 2 g/ha): 0 | Galium (1) plant response rating (galium; Rate 4 g/ha): 30 | Galium (2) plant response rating (galium; Rate 4 g/ha): 30 | Galium (1) plant response rating (galium; Rate 8 g/ha): 35 | Galium (2) plant response rating (galium; Rate 8 g/ha): 30 | Galium (1) plant response rating (galium; Rate 16 g/ha): 40 | Galium (2) plant response rating (galium; Rate 16 g/ha): 40 | Galium (1) plant response rating (galium; Rate 32 g/ha): 40 | Galium (2) plant response rating (galium; Rate 32 g/ha): 40 | Chickweed plant response rating (chickweed; Rate 2 g/ha): 0 | Chickweed plant response rating (chickweed; Rate 4 g/ha): 0 | Chickweed plant response rating (chickweed; Rate 8 g/ha): 20 | Chickweed plant response rating (chickweed; Rate 16 g/ha): 50 | Chickweed plant response rating (chickweed; Rate 32 g/ha): 60

CCOC(=O)COc1cc(-c2nn3c(c2Cl)CCCC3)c(F)cc1Cl [Compound 42]
Ryegrass plant response rating (ryegrass; Rate 2 g/ha): 0 | Ryegrass plant response rating (ryegrass; Rate 4 g/ha): 0 | Ryegrass plant response rating (ryegrass; Rate 8 g/ha): 0 | Ryegrass plant response rating (ryegrass; Rate 16 g/ha): 0 | Ryegrass plant response rating (ryegrass; Rate 32 g/ha): 30 | Wheat (Winter) plant response rating (winter wheat; Rate 2 g/ha): 0 | Wheat (Winter) plant response rating (winter wheat; Rate 4 g/ha): 0 | Wheat (Winter) plant response rating (winter wheat; Rate 8 g/ha): 10 | Wheat (Winter) plant response rating (winter wheat; Rate 16 g/ha): 10 | Wheat (Winter) plant response rating (winter wheat; Rate 32 g/ha): 10 | Wild oat (1) plant response rating (wild oat; Rate 2 g/ha): 0 | Wild oat (2) plant response rating (wild oat; Rate 2 g/ha): 0 | Wild oat (1) plant response rating (wild oat; Rate 4 g/ha): 0 | Wild oat (2) plant response rating (wild oat; Rate 4 g/ha): 0 | Wild oat (1) plant response rating (wild oat; Rate 8 g/ha): 0 | Wild oat (2) plant response rating (wild oat; Rate 8 g/ha): 0 | Wild oat (1) plant response rating (wild oat; Rate 16 g/ha): 0 | Wild oat (2) plant response rating (wild oat; Rate 16 g/ha): 0 | Wild oat (1) plant response rating (wild oat; Rate 32 g/ha): 10 | Wild oat (2) plant response rating (wild oat; Rate 32 g/ha): 10 | Wild mustard plant response rating (wild mustard; Rate 2 g/ha): 40 | Wild mustard plant response rating (wild mustard; Rate 4 g/ha): 100 | Wild mustard plant response rating (wild mustard; Rate 16 g/ha): 100 | Wild mustard plant response rating (wild mustard; Rate 32 g/ha): 100 | Wild buckwheat plant response rating (wild buckwheat; Rate 2 g/ha): 60 | Wild buckwheat plant response rating (wild buckwheat; Rate 4 g/ha): 60 | Wild buckwheat plant response rating (wild buckwheat; Rate 8 g/ha): 100 | Wild buckwheat plant response rating (wild buckwheat; Rate 16 g/ha): 100 | Kochia plant response rating (kochia; Rate 2 g/ha): 75 | Kochia plant response rating (kochia; Rate 4 g/ha): 80 | Kochia plant response rating (kochia; Rate 8 g/ha): 80 | Kochia plant response rating (kochia; Rate 16 g/ha): 100 | Kochia plant response rating (kochia; Rate 32 g/ha): 100 | Downy brome plant response rating (downy brome; Rate 2 g/ha): 0 | Downy brome plant response rating (downy brome; Rate 4 g/ha): 0 | Downy brome plant response rating (downy brome; Rate 8 g/ha): 0 | Downy brome plant response rating (downy brome; Rate 16 g/ha): 0 | Downy brome plant response rating (downy brome; Rate 32 g/ha): 0 | Green foxtail plant response rating (green foxtail; Rate 2 g/ha): 0 | Green foxtail plant response rating (green foxtail; Rate 4 g/ha): 0 | Green foxtail plant response rating (green foxtail; Rate 8 g/ha): 0 | Green foxtail plant response rating (green foxtail; Rate 16 g/ha): 10 | Green foxtail plant response rating (green foxtail; Rate 32 g/ha): 60 | Sunflower plant response rating (sunflower; Rate 2 g/ha): 0 | Sunflower plant response rating (sunflower; Rate 4 g/ha): 20 | Sunflower plant response rating (sunflower; Rate 8 g/ha): 30 | Sunflower plant response rating (sunflower; Rate 16 g/ha): 60 | Sunflower plant response rating (sunflower; Rate 32 g/ha): 100 | Field violet plant response rating (field violet; Rate 2 g/ha): 0 | Field violet plant response rating (field violet; Rate 4 g/ha): 0 | Field violet plant response rating (field violet; Rate 8 g/ha): 10 | Field violet plant response rating (field violet; Rate 16 g/ha): 70 | Field violet plant response rating (field violet; Rate 32 g/ha): 80 | Sugar beet plant response rating (sugar beet; Rate 2 g/ha): 100 | Sugar beet plant response rating (sugar beet; Rate 8 g/ha): 100 | Sugar beet plant response rating (sugar beet; Rate 16 g/ha): 100 | Sugar beet plant response rating (sugar beet; Rate 32 g/ha): 100 | Rape plant response rating (rape; Rate 2 g/ha): 0 | Rape plant response rating (rape; Rate 4 g/ha): 20 | Rape plant response rating (rape; Rate 8 g/ha): 40 | Rape plant response rating (rape; Rate 16 g/ha): 70 | Rape plant response rating (rape; Rate 32 g/ha): 100 | Galium (1) plant response rating (galium; Rate 2 g/ha): 0 | Galium (2) plant response rating (galium; Rate 2 g/ha): 0 | Galium (1) plant response rating (galium; Rate 4 g/ha): 0 | Galium (2) plant response rating (galium; Rate 4 g/ha): 0 | Galium (1) plant response rating (galium; Rate 8 g/ha): 40 | Galium (2) plant response rating (galium; Rate 8 g/ha): 30 | Galium (1) plant response rating (galium; Rate 16 g/ha): 40 | Galium (2) plant response rating (galium; Rate 16 g/ha): 60 | Galium (1) plant response rating (galium; Rate 32 g/ha): 60 | Galium (2) plant response rating (galium; Rate 32 g/ha): 60 | Chickweed plant response rating (chickweed; Rate 2 g/ha): 0 | Chickweed plant response rating (chickweed; Rate 4 g/ha): 0 | Chickweed plant response rating (chickweed; Rate 8 g/ha): 0 | Chickweed plant response rating (chickweed; Rate 16 g/ha): 0 | Chickweed plant response rating (chickweed; Rate 32 g/ha): 0
